System: RA patients
Assay: LDL determination, Study 2 (RA patients, monotherapy)
Type: in vivo, human
Source text: Randomized, double-blind, placebo-controlled, multicenter, phase IIb dose finding study of Compound 1 (dosed as a [Compound 1:HCl:3H2O]) administered for 24 weeks as monotherapy to subjects with moderately to severely active rheumatoid arthritis who have an inadequate response to methotrexate alone
Double-blind, placebo-controlled, monotherapy study in subjects with moderately to severely active RA who have an inadequate response to methotrexate (MTX) (oral or parenteral).
280 subjects randomized to one of 3 doses of Compound 1 (dosed as a [Compound 1:HCl:3H2O]) or to placebo, given once daily (q.d.).
Twelve weeks of treatment with Compound 1 (dosed as a [Compound 1:HCl:3H2O]) at 50 mg, 100 mg, or 200 mg q.d.; or placebo. At Week 12, all subjects on placebo and the subjects on the 50 mg dose who have not achieved 20% improvement in swollen joint count (SJC66) and tender joint count (TJC68) will be assigned to 100 mg q.d. in a blinded fashion and will continue treatment until Week 24. Subjects in the other groups will maintain their randomized treatment until Week 24.
The determination of [LDL]-cholesterol is made using an automated method taking advantage of the selective micellary solubilization of [LDL]-cholesterol by a nonionic detergent and the interaction of a sugar compound and lipoproteins (VLDL and chylomicrons).
When a detergent is included in the enzymatic method for cholesterol determination (cholesterol esterase, cholesterol oxidase coupling reaction), the relative reactivities of cholesterol in the lipoprotein fractions increase in this order: [HDL]<chylomicrons <VLDL <[LDL]. In the presence of Mg^2+, a sugar compound markedly reduces the enzymatic reaction of the cholesterol measurement in VLDL and chylomicrons. The combination of a sugar compound with detergent enables the selective determination of [LDL]-cholesterol in serum. (Friedewald et al., 1972; Rifai et al., 1992)
Homogeneous enzymatic colorimetric assay.
In the presence of peroxidase, the hydrogen peroxide generated reacts with 4-aminoantipyrine and Sodium N-(2-hydroxy-3-sulfopropyl)-3,5-dimethoxyaniline (HSDA) to form a purple-blue dye.
The color intensity of this dye is directly proportional to the cholesterol concentration and is measured photometrically.
Human serum and plasma samples [LDL] determination was done on a Roche/Hitachi Cobas c 701/702 system which automatically calculate the analyte concentration of each sample. Samples containing precipitates are centrifuged before performing the assay.

[1] = Study 2 12 weeks results, 50 mg q.d., week 12
[2] = Study 2 12 weeks results, 100 mg q.d., week 1
[3] = Study 2 12 weeks results, 100 mg q.d., week 2
[4] = Study 2 12 weeks results, 100 mg q.d., week 4
[5] = Study 2 12 weeks results, 100 mg q.d., week 8
[6] = Study 2 12 weeks results, 100 mg q.d., week 12
[7] = Study 2 12 weeks results, 200 mg q.d., week 1
[8] = Study 2 12 weeks results, 200 mg q.d., week 2
[9] = Study 2 12 weeks results, 200 mg q.d., week 4
[10] = Study 2 12 weeks results, 200 mg q.d., week 8
[11] = Study 2 12 weeks results, 200 mg q.d., week 12
[12] = Study 2 24 weeks results, 50 mg q.d. non responders switching to 100 mg q.d. at week 12, week 1
[13] = Study 2 24 weeks results, 50 mg q.d. non responders switching to 100 mg q.d. at week 12, week 2
[14] = Study 2 24 weeks results, 50 mg q.d. non responders switching to 100 mg q.d. at week 12, week 4
[15] = Study 2 24 weeks results, 50 mg q.d. non responders switching to 100 mg q.d. at week 12, week 8
[16] = Study 2 24 weeks results, 50 mg q.d. non responders switching to 100 mg q.d. at week 12, week 12
[17] = Study 2 24 weeks results, 50 mg q.d. non responders switching to 100 mg q.d. at week 12, week 16
[18] = Study 2 24 weeks results, 50 mg q.d. non responders switching to 100 mg q.d. at week 12, week 20
[19] = Study 2 24 weeks results, 50 mg q.d. non responders switching to 100 mg q.d. at week 12, week 24
[20] = Study 2 24 weeks results, 50 mg q.d. responders, week 1
[21] = Study 2 24 weeks results, 50 mg q.d. responders, week 2
[22] = Study 2 24 weeks results, 50 mg q.d. responders, week 4
[23] = Study 2 24 weeks results, 50 mg q.d. responders, week 8
[24] = Study 2 24 weeks results, 50 mg q.d. responders, week 12
[25] = Study 2 24 weeks results, 50 mg q.d. responders, week 16
[26] = Study 2 24 weeks results, 50 mg q.d. responders, week 20
[27] = Study 2 24 weeks results, 50 mg q.d. responders, week 24
[28] = Study 2 24 weeks results, 100 mg q.d., week 1
[29] = Study 2 24 weeks results, 100 mg q.d., week 2
[30] = Study 2 24 weeks results, 100 mg q.d., week 4
[31] = Study 2 24 weeks results, 100 mg q.d., week 8
[32] = Study 2 24 weeks results, 100 mg q.d., week 12
[33] = Study 2 24 weeks results, 100 mg q.d., week 16
[34] = Study 2 24 weeks results, 100 mg q.d., week 20
[35] = Study 2 24 weeks results, 100 mg q.d., week 24
[36] = Study 2 24 weeks results, 200 mg q.d., week 1
[37] = Study 2 24 weeks results, 200 mg q.d., week 2
[38] = Study 2 24 weeks results, 200 mg q.d., week 4
[39] = Study 2 24 weeks results, 200 mg q.d., week 8
[40] = Study 2 24 weeks results, 200 mg q.d., week 12
[41] = Study 2 24 weeks results, 200 mg q.d., week 16
[42] = Study 2 24 weeks results, 200 mg q.d., week 20
[43] = Study 2 24 weeks results, 200 mg q.d., week 24
[44] = Study 2 24 weeks results, placebo switching to 100 mg q.d. at week 12, week 16
[45] = Study 2 24 weeks results, placebo switching to 100 mg q.d. at week 12, week 20
[46] = Study 2 24 weeks results, placebo switching to 100 mg q.d. at week 12, week 24
[47] = placebo switching to 100 mg q.d. at week 12, week 20
[48] = placebo switching to 100 mg q.d. at week 12, week 24

## O=C(Nc1nc2cccc(-c3ccc(CN4CCS(=O)(=O)CC4)cc3)n2n1)C1CC1 [Compound 1, cyclopropanecarboxylic acid {5-[4-(1,1-dioxo-thiomorpholin-4-ylmethyl)-phenyl]-[1,2,4]triazolo[1,5-a]pyridin-2yl}-amide]
[1]
  [LDL] Mean CFB: 0.090 mmol/L
  [LDL] Median CFB: 0.040 mmol/L
[2]
  [LDL] Mean CFB: 0.116 mmol/L
  [LDL] Median CFB: 0.070 mmol/L
[3]
  [LDL] Mean CFB: 0.105 mmol/L
  [LDL] Median CFB: -0.050 mmol/L
[4]
  [LDL] Mean CFB: 0.195 mmol/L
  [LDL] Median CFB: 0.140 mmol/L
[5]
  [LDL] Mean CFB: 0.162 mmol/L
  [LDL] Median CFB: 0.140 mmol/L
[6]
  [LDL] Mean CFB: 0.278 mmol/L
  [LDL] Median CFB: 0.180 mmol/L
[7]
  [LDL] Mean CFB: 0.209 mmol/L
  [LDL] Median CFB: 0.180 mmol/L
[8]
  [LDL] Mean CFB: 0.192 mmol/L
  [LDL] Median CFB: 0.130 mmol/L
[9]
  [LDL] Mean CFB: 0.216 mmol/L
  [LDL] Median CFB: 0.290 mmol/L
[10]
  [LDL] Mean CFB: 0.212 mmol/L
  [LDL] Median CFB: 0.230 mmol/L
[11]
  [LDL] Mean CFB: 0.347 mmol/L
  [LDL] Median CFB: 0.315 mmol/L
[12]
  [LDL] Mean CFB: 0.08 mmol/L
  [LDL] Median CFB: 0.07 mmol/L
[13]
  [LDL] Mean CFB: 0.00 mmol/L
  [LDL] Median CFB: -0.02 mmol/L
[14]
  [LDL] Mean CFB: 0.17 mmol/L
  [LDL] Median CFB: 0.05 mmol/L
[15]
  [LDL] Mean CFB: 0.10 mmol/L
  [LDL] Median CFB: 0.10 mmol/L
[16]
  [LDL] Mean CFB: 0.11 mmol/L
  [LDL] Median CFB: 0.09 mmol/L
[17]
  [LDL] Mean CFB: 0.22 mmol/L
  [LDL] Median CFB: 0.20 mmol/L
[18]
  [LDL] Mean CFB: 0.03 mmol/L
  [LDL] Median CFB: -0.04 mmol/L
[19]
  [LDL] Mean CFB: 0.14 mmol/L
  [LDL] Median CFB: 0.15 mmol/L
[20]
  [LDL] Mean CFB: -0.01 mmol/L
  [LDL] Median CFB: -0.01 mmol/L
[21]
  [LDL] Mean CFB: -0.07 mmol/L
  [LDL] Median CFB: -0.06 mmol/L
[22]
  [LDL] Mean CFB: 0.01 mmol/L
  [LDL] Median CFB: -0.05 mmol/L
[23]
  [LDL] Mean CFB: 0.16 mmol/L
  [LDL] Median CFB: 0.14 mmol/L
[24]
  [LDL] Mean CFB: 0.09 mmol/L
  [LDL] Median CFB: 0.03 mmol/L
[25]
  [LDL] Mean CFB: 0.18 mmol/L
  [LDL] Median CFB: 0.16 mmol/L
[26]
  [LDL] Mean CFB: 0.00 mmol/L
  [LDL] Median CFB: 0.12 mmol/L
[27]
  [LDL] Mean CFB: 0.00 mmol/L
  [LDL] Median CFB: -0.01 mmol/L
[28]
  [LDL] Mean CFB: 0.12 mmol/L
  [LDL] Median CFB: 0.07 mmol/L
[29]
  [LDL] Mean CFB: 0.10 mmol/L
  [LDL] Median CFB: -0.05 mmol/L
[30]
  [LDL] Mean CFB: 0.19 mmol/L
  [LDL] Median CFB: 0.14 mmol/L
[31]
  [LDL] Mean CFB: 0.16 mmol/L
  [LDL] Median CFB: 0.14 mmol/L
[32]
  [LDL] Mean CFB: 0.28 mmol/L
  [LDL] Median CFB: 0.18 mmol/L
[33]
  [LDL] Mean CFB: 0.28 mmol/L
  [LDL] Median CFB: 0.20 mmol/L
[34]
  [LDL] Mean CFB: 0.25 mmol/L
  [LDL] Median CFB: 0.23 mmol/L
[35]
  [LDL] Mean CFB: 0.31 mmol/L
  [LDL] Median CFB: 0.31 mmol/L
[36]
  [LDL] Mean CFB: 0.21 mmol/L
  [LDL] Median CFB: 0.18 mmol/L
[37]
  [LDL] Mean CFB: 0.19 mmol/L
  [LDL] Median CFB: 0.13 mmol/L
[38]
  [LDL] Mean CFB: 0.22 mmol/L
  [LDL] Median CFB: 0.29 mmol/L
[39]
  [LDL] Mean CFB: 0.21 mmol/L
  [LDL] Median CFB: 0.23 mmol/L
[40]
  [LDL] Mean CFB: 0.35 mmol/L
  [LDL] Median CFB: 0.32 mmol/L
[41]
  [LDL] Mean CFB: 0.30 mmol/L
  [LDL] Median CFB: 0.23 mmol/L
[42]
  [LDL] Mean CFB: 0.29 mmol/L
  [LDL] Median CFB: 0.25 mmol/L
[43]
  [LDL] Mean CFB: 0.38 mmol/L
  [LDL] Median CFB: 0.34 mmol/L
[44]
  [LDL] Mean CFB: 0.07 mmol/L
  [LDL] Median CFB: -0.05 mmol/L
[45]
  [LDL] Mean CFB: 0.16 mmol/L
  [LDL] Median CFB: 0.03 mmol/L
[46]
  [LDL] Mean CFB: 0.10 mmol/L
  [LDL] Median CFB: 0.12 mmol/L
Placebo switching to 100 mg q.d. at week 12, week 16
  [LDL] Mean percentage CFB - 24 weeks results: 2.82%
[47]
  [LDL] Mean percentage CFB - 24 weeks results: 5.77%
  [LDL] Median percentage CFB - 24 weeks results: 1.00%
[48]
  [LDL] Mean percentage CFB - 24 weeks results: 4.50%
  [LDL] Median percentage CFB - 24 weeks results: 4.13%

— patent US10376520B2, “Methods for the treatment of cardiovascular disorders” (Galapagos NV, priority 2015, dated 2019)
